US20190345443A1, “METHOD FOR THE CULTURING AND DIFFERENTIATION OF CELLS” (FRAUNHOFER-GESELLSCHAFT ZUR FORDERUNG DER ANGEWANDTEN …, priority 2018, published 2019)

Test system: MDA-MB-231 breast cancer cells
Experiment: Overhead culture of MDA-MB-231 breast cancer cells with paclitaxel, relative cell count
Assay type: cell-based
Conditions: 500 nM paclitaxel, 48 h overhead culture
Protocol: In the present experiment, MDA-MB-231 breast cancer cells were initially seeded on cell culture substrates according to the present invention, in particular nanoporous glass membranes with average pore diameters of 17 nm, 26 nm, 46 nm, 81 nm, and 124 nm, and on a smooth non-porous glass surface and cultured for 24 h in order to obtain homogeneous cell colonization on all substrates. Subsequently, the samples were inverted and divided into two groups: one control group and one test group, wherein the culturing took place in overhead culture for 48 h. In this context, the control group was cultured in normal culture medium and 500 nM paclitaxel was added to the culture medium of the test group. During culturing for 48 h in overhead culture, a reduction of the relative cell count on the substrates according to the invention by approximately 35-55% in the test group as compared to the control group was observed (FIG. 7).

SMILES: CC(=O)O[C@H]1C(=O)[C@@]2(C)[C@H]([C@H](OC(=O)c3ccccc3)[C@]3(O)C[C@H](OC(=O)[C@H](O)[C@@H](NC(=O)c4ccccc4)c4ccccc4)C(C)=C1C3(C)C)[C@]1(OC(C)=O)CO[C@@H]1C[C@@H]2O [paclitaxel]
- reduction of the relative cell count in the test group as compared to the control group (on nanoporous glass membranes (17, 26, 46, 81, 124 nm)): 35-55%
- reduction of the relative cell count in the test group as compared to the control group (on smooth non-porous glass surface): approximately 5%
